Assay results published in US20240366637A1, “Compounds inhibiting the synergistic carsinogenic effect of heavy metals in the presence of other carcinogens for use in the treatment of cancer” (priority 2021, published 2024).

How the values were obtained:
[1] = tested on: Salmonella typhimurium TA1535; conditions: cadmium chloride 0.5 mM as pro-mutagen, N-Methyl-N-nitrosourea 180 μM as mutagen, candidate in various concentrations; mutant revertants on solid media
Procedure: The operating hypothesis was tested with an AMES test (as described e.g. by Mandel and Ryser, 1984) based platform using Salmonella typhimurium TA1535 (Standard Ames Tester Strain), cadmium chloride as pro-mutagen (0.5 mM final concentration during treatment), N-Methyl-N-nitrosourea as mutagen (180 μM final concentration during treatment) and EDTA, phytic acid (IP6) and Unithiol (i.e. DMPS) as candidate cadmium-promoted mutagenicity antidotes (in various concentrations, see FIGS. 1 and 2).
The experiment included the following steps: • 1. Healthy growth of bacterial cells • 2. Absorption of cadmium chloride (as a non-genotoxic metabolic poison) under conditions of reduced metabolism (bacteria chilled on ice) • 3. Addition of candidate antidotes and metabolic activation (fresh growth medium, 37° C.) • 4. Addition of N-methyl-N-nitrosourea under metabolically active conditions to fix mutations (fresh growth medium, 37° C.) • 5. Screening for mutant revertants on solid media (standard, second generation Petri dish-based AMES test)

Salmonella typhimurium = conditions: synergistic with two nitrosoamines; cited from earlier work

Compound	inhibition of mutagenicity-promoting synergy between cadmium and N-methyl-N-nitrosourea [1]	increase of the mutagenicity of two common nitrosoamines, greater than expected from simple additivity (Salmonella typhimurium)
O=C(O)CN(CCN(CC(=O)O)CC(=O)O)CC(=O)O [EDTA]	did not inhibit	–
O=S(=O)(O)CC(S)CS (stereo not shown) [Unithiol, 2,3-Dimercapto-1-propanesulfonic acid]	dose-dependent inhibition	–
[Cl][Cd][Cl] [cadmium chloride]	–	up to 30 fold
O=P(O)(O)O[C@H]1[C@H](OP(=O)(O)O)[C@@H](OP(=O)(O)O)[C@H](OP(=O)(O)O)[C@@H](OP(=O)(O)O)[C@H]1OP(=O)(O)O [phytic acid]	dose-dependent inhibition	–
